row,melting point,SMILES
1,110 to 112 °C,CCCCC(=O)N(CCCCn1ccnc1)C1=Nc2cccc3cccc1c23
2,288 to 290 °C,N=C(N)NC1=NC(=O)C(=Cc2cccc(-c3cc(F)c(O)c(C45CC6CC(CC(C6)C4)C5)c3)c2)S1
3,201 to 202 °C,CS(=O)(=O)c1ccc(-c2cc(C(F)F)nn2-c2ccc(F)cc2)cc1F
4,79 to 82 °C,Cn1ccc(NC(=S)S)n1
5,139 to 140 °C,Nc1nc(OC2CCC2)c2ncn(C3CC(F)C(CO)O3)c2n1 (centres undefined)
6,168 to 169 °C,CC1CC2(C)C(CCC3C4CCC(C5(C)OCCO5)C4(C)CC(=O)C32)CC1=O (centres undefined)
7,139 to 140 °C,COC(=O)c1ccc(OC)c(/C=C/C(=O)N(C(C)C)C(C)C)c1
8,150 to 152 °C,COc1cc(Cn2c(-c3ccc(OCc4ccccc4)cc3)c(C)c3cc(OCc4ccccc4)ccc32)ccc1OCCBr
9,165 °C,C[C@H](O)CN1CCN(c2ccc(Nc3ncc4ccc(-c5ccccc5N(C)S(C)(=O)=O)n4n3)cc2F)CC1
10,142 to 143 °C,COC(=O)c1c(-c2ccc(C)cc2)c2cc(OCc3ccccc3)ccc2c(=O)n1CC(C)C
11,61 to 63 °C,CC1(C)CC(=O)C1(Br)CC(Br)(Br)Br (centres undefined)
12,158 to 160 °C,Nc1ccc(O)c(C(=O)CCC(=O)O)c1
13,230 to 232 °C,Nc1nnc2c3c(c(N4CCCCC4)nn12)CCCC3
14,293 to 296 °C,COc1nc(OC)nc(-n2c(N)nc3cc(Cl)ccc32)n1
15,90 to 92 °C,O=c1n(CCCC2CCCC2)ccn1-c1ccc(NS(=O)(=O)c2ccc3c(c2)CCC(CNCC(O)c2cccnc2)O3)cc1 (centres undefined)
16,83 to 85 °C,CC(C)(C)C(O)(Cn1cncn1)C(=O)C=Cc1ccc(Cl)cc1 (centres undefined)
17,207 to 209 °C,CCCCOc1c(CNC(=O)OC(C)(C)C)n(CC(C)C)c(=O)c2ccc(/C=C/C(=O)O)cc12
18,190 °C,OC[C@@H]1Cc2ccccc2CN1C(=S)Nc1cccc2cnccc12
19,199 to 200 °C,C[C@@H]1NC(=O)O[C@H]1c1ccc(C(C)(C)C)cc1
20,180 to 182 °C,COCCN1CCc2ccc(Nc3ncc(Cl)c(N[C@@H]4CCCC[C@H]4NC(=O)C(F)(F)F)n3)cc2CC1
21,268 to 269 °C,Cc1ccc(-c2ccc3c(c2)C=C(C(=O)Nc2ccc(CP4(=O)OCCCO4)cc2)CCO3)cc1
22,151 to 154 °C,CC12C=CC(=O)NC1CCc1cc(Cl)ccc12 (centres undefined)

row,melting point,SMILES
1,146 to 147 °C,N#Cc1ccc(C2C(=O)N(CC3CC3)Cc3cncn32)cc1 (centres undefined)
2,191 to 193 °C,CC1(C)OC(=O)C(=CNc2ncnc3ccccc23)C(=O)O1
3,91 to 93 °C,COc1nn(-c2cccc(N3CCCC3=O)c2)c(=O)n(Cc2ccc(Cl)cc2)c1=O
4,160 to 161 °C,O=C(N[C@H](Cc1cccc(OCC(F)(F)C(F)F)c1)[C@@H](O)c1ccc(F)cc1)c1ccc(F)c2ccccc12 (racemic)
5,173 to 174 °C,O=C(NCc1ccc(Cl)cc1)c1cn2c3c(cc(CCCO)cc3c1=O)OCC2(CO)CO
6,105 to 108 °C,CC(C)c1cc(CCC(=O)O)n(Cc2ccc(Cl)cc2Cl)n1
7,176 to 178 °C,CC(C)c1cc(-c2cc(C(=O)O)ccc2S(C)(=O)=O)on1
8,47 to 48 °C,CCC(=NOc1ccc(F)cc1)c1cc(Cl)ccc1NS(=O)(=O)C(F)(F)F
9,170 to 171 °C,CCS(=O)(=O)NCc1cccc(-c2nc(=O)c3ccccc3s2)n1
10,130 to 142 °C,CCOC(=O)CC1SC2=Nc3ccccc3CN2C1=O (centres undefined)
11,255 °C,CCOC(=O)C1=C(N)NC2=C(C(=O)CCC2)C1c1cccc(Br)c1 (centres undefined)
12,135 to 141 °C,COc1ccc(C2C[N+]([O-])=C3CCCCC32)cc1OC (centres undefined)
13,148 to 151 °C,COc1cccc(Cn2nc3oc(=O)cc(C)c3c2C)c1
14,132 to 137 °C,NCCNC(=O)CNC(=O)Cc1ccccc1
15,136 to 137 °C,COc1ccc(C(=O)CCC(=O)O)cc1N
16,127 to 128 °C,Cc1ccc(S(=O)(=O)NCCCCOc2ccc(-n3cnnn3)cc2)cc1
17,157 to 159 °C,CC(SC(=O)c1ccccc1)C(=O)N1c2ccccc2CCC1C(=O)O (centres undefined)
18,65 to 77 °C,CN1CCN(c2ccc(/C=C/C(=O)CC(=O)/C=C/c3ccc4cc[nH]c4c3)cc2)CC1
19,195 to 196 °C,CS(=O)c1ccc(-c2nc(=O)c3ccccc3s2)cn1 (centres undefined)
20,120 to 121 °C,Cc1ccccc1N1CCc2c(N(C)C)nc3c(C)cccc3c21
21,148 to 150 °C,Cn1ccc(-c2ccc(C(=O)N3Cc4cccn4Cc4ccccc43)c(Cl)c2)n1
22,165 to 169 °C,CNC(=O)n1cnc(C(N)=O)c1N

row,melting point,SMILES
1,> 300 °C,CC(=O)Nc1ccc(-c2c[nH]c(=O)c(C)n2)cc1
2,149 to 151 °C,CC(=O)Nc1cc(C(F)(F)F)ccc1S(=O)CC#N (centres undefined)
3,82 to 84 °C,COc1ccc(-c2ccc(C(C)=NO)cc2)cc1
4,110 to 111 °C,CN(C)CCCn1c(-c2ccc(Br)cc2)csc1=Nc1ccccc1
5,143 to 144 °C,CCOc1nnc2n1C=Cc1ccccc1C2
6,185 °C,CN1CCC(=Cc2cc(C(C)(C)C)c(O)c(C(C)(C)C)c2)C1=O
7,195 to 196 °C,CC(C)(c1ccc(O)cc1)c1ccc(-c2ccc(C(C)(C)c3ccc(O)cc3)cc2)cc1
8,198 to 200 °C,CC(C)=NOCc1nc2c(N)nc3cccnc3c2n1CC(C)(C)O
9,250 °C,CSC1(C)C(=O)Nc2ccc(C3=NNC(=O)SC3C)cc21 (centres undefined)
10,181 to 183 °C,N#Cc1cc(-c2ccoc2)c2ccc(COc3cc(F)cc(-c4cccs4)c3)cc2n1
11,212 to 213 °C,O=c1c2c(nc3ccc(Cl)cn13)C(=Cc1ccccc1)CC2
12,405 °C,Cc1ccc(-n2c(-c3ccc(-c4ccc(-c5nc6c7ccccc7c7ccccc7c6n5-c5ccc(C)cc5)cc4)cc3)nc3c4ccccc4c4ccccc4c32)cc1
13,226 to 227 °C,COc1cc2ncnc(Nc3ccc(F)c(Cl)c3)c2cc1OCC1(C)COC1
14,105 to 107 °C,CC(C)(C)OC(=O)NCCSc1cccc2nccn12
15,67 to 68 °C,CCOc1cnc(-c2cc(Cl)c(OC)c3ccccc23)s1
16,140 to 142 °C,FC(F)C(F)(F)Oc1cccc(Nc2nccc(-c3c[nH]c4ccccc34)n2)c1
17,277 to 278 °C,COc1cc(C=CC(=O)Nc2cnc3ccc(Cl)cc3c2-c2ccccc2C)cc(OC)c1OC(C)=O
18,65 to 66 °C,CCSC(C)C(=O)N(CC)c1cn(-c2cccnc2)nc1Cl (centres undefined)
19,123 to 125 °C,Cc1cc(-c2ccccc2)nn1C(C)(C)C(=O)N(C)C
20,111 to 114 °C,CCOc1ccc(C2=NN(C3CCCC3)C(=O)[C@H]3CCCC[C@@H]23)cc1OCC (relative stereo)
21,117 to 120 °C,CCOC(=O)C1=C(C)Nc2ccnc(OC(C)C)c2C1c1ccc(C(F)(F)F)cc1 (centres undefined)
22,97 °C,Clc1ccc(C2(Cn3cncn3)CC(Cl)CO2)c(Cl)c1 (centres undefined)

row,SMILES,melting point
1,CCCCCCC(C)(C)c1cc(O)c2c(c1)oc(=O)c1ccc(O)cc12,103 to 108 °C
2,CN1CCC(c2c[nH]c(-c3ccc(F)cc3)c2-c2ccncc2)=CC1Cc1ccccc1 (centres undefined),198 to 200 °C
3,O=C1NC(=S)NC(=O)C1=Cc1ccc[nH]1,280 °C
